The subject of one series is p53 protein. The series can be described thus: p53 protein accumulation by western blotting. Format: cell-based, human. The protocol:
U87MG were treated with DMSO (control), EB148 or EB54 for 16 h. […] […] Glyceraldehyde-3-phosphate dehydrogenase (GAPDH) was the loading control ([…], Sigma Aldrich, Milan, Italy, 1:5000). The primary antibodies were detected using the appropriate peroxidase-conjugated secondary antibodies, which were then detected using a chemioluminescent substrate (ECL, Perkin Elmer). Densitometric analysis of the immunoreactive bands was performed using Image J Software.
(In general: A western blot detects proteins with antibodies after separation by electrophoresis.)

For series [1], the target named is T1, human TSPO (Homo sapiens, UniProt P30536).
T1 construct: aliquots of U87MG cell membranes (20 μg of proteins) were incubated with [^3H]PK 11195 (1.5 nM); endogenous in cells; host or cells: U87MG human glioblastoma cell membranes
The series can be described thus: TSPO association/dissociation and competition kinetics with [3H]PK11195. Format: binding. The text has this: Association and dissociation rate constants for [^3H]
For competition kinetics, the [^3H]

The next series has as its system ERK1/2. Kind of series: ERK1/2 phosphorylation ELISA in U87MG cells. Format: cell-based, human. The protocol: Figure 10 ERK phosphorylation and levels of ERK/MDM2 complex in U87MG cells A. U87MG cells were treated with DMSO (control), 1 μΜ EB148 or 1 μΜ EB54 for the indicated times; in some experiments, after 2 h of treatment the medium was replaced by fresh medium not containing drugs for an additional 2 h. At the end of the treatment period the levels of ERK 1/2 phosphorylation were evaluated using ELISA kits, as described in the Methods section. The data are expressed as the percentage of phosphorylated ERK1/2 versus untreated cells (control), which were set at 100%. Data are the mean values ± SEM of three independent experiments performed in triplicate. Analysis of significant differences in mean ERK/MDM2 complex levels was performed using one-way ANOVA with a Bonferroni post-test: * p< 0.05, ** p< 0.01, *** p<0.001 vs. control. […] C. U87MG cells were treated with DMSO (control), 1 μΜ EB148 or 1 μΜ EB54 for the indicated times; in some experiments, after 8 h of treatment, the medium was replaced by fresh medium not containing drugs for an additional 24 h. At the end of the treatment period, U87MG cells were collected and suspended in lysis buffer. Equal amounts of cell lysates were captured on wells pre-coated with MDM2 antibody. After extensive washing, the levels of the ERK/MDM2 complex were quantified using an antibody specific for ERKs, and subsequently an HRP-conjugated antibody and a TMB substrate kit. Data are expressed as percentage of control set to 100%, and represent the mean ± SEM of three independent experiments. The significance of the differences was determined with a one-way ANOVA with Bonferroni post-test: * p<0.05, ** p<0.01, *** p<0.001 vs. control.
On the technique in general: ELISA stands for enzyme-linked immunosorbent assay.

Series [2] concerns U87MG cells. Kind of series: U87MG cell viability, trypan blue exclusion test. Format: cell-based, human. As to conditions: 72 h, maximal effect at 100 μM. Here is the method:
The effects of compound treatment on U87MG cell viability and proliferation were evaluated by Trypan blue exclusion assays and MTS assay, respectively. U87MG cells were treated with EB148 or EB54 for 72 h. Following treatment, harvested cells were mixed with an equal volume of 0.4% trypan blue dye. For quantization of cell viability, blue and bright cells were counted, and viability was calculated as the number of living (bright) and dead (blue) cells in each well. To establish the effect of MDM2 inhibitors on cell proliferation, cells were treated for 72 h with different concentrations of each compound (0.1 nM–100 μM) for 72 h, and then MTS assay was performed according to the manufacturer's instructions.

Series [3] concerns the target T1, human TSPO. The series can be described thus: Equilibrium [3H]PK11195 radioligand binding assay in U87MG cell membranes. Here is the method:
Equilibrium radioligand binding assays were performed essentially as previously described. […] Samples were rapidly filtered under vacuum through GF/C glass fiber filters.

For series [4], the system named is mesenchymal Stem Cells (MSCs) isolated from human bone marrow. The series can be described thus: Toxicity in non-tumour cells, MSC proliferation by MTS assay. Format: cell-based. The settings on record: 72 h; EB54 at 10 μM; EB148 up to the highest concentration tested. Here is the method: […]. At the end of treatments, cell proliferation was measured by MTS assay.
(Tetrazolium dyes change colour on reduction, which living cells bring about.)

In series [5] the test system is U87MG cells. Kind of series: Annexin V and 7-AAD staining (apoptosis). As to conditions: 1 μM, 24 h. The class given is cell-based, human. The protocol:
Dual staining with Annexin V coniugated to fluorescein-isothiocyanate (FITC) and 7-amino-actinomysin (7-AAD) was performed using the commercially available kit (Muse Annexin V and Dead Cell Kit; Merck KGaA, Darmstadt, Germany).
U87MG cells were treated with DMSO (control), EB54 or EB148 (1 μM) for 24 h. Both floating and adherent cells were collected, and incubated for 10 min at room temperature with the fluorescent reagent. After incubation, the percentages of living, apoptotic and dead cells were acquired and analyzed by MuseTM Cell Analyzer in accordance to the manufacture's guidelines.

Series [6] deals with U87MG cells. The series can be described thus: U87MG cell proliferation, MTS assay. As to conditions: U87MG, 72 h treatment, then drug-free medium 72 h. The class given is cell-based, human. The protocol: The effects of compound treatment on U87MG cell viability and proliferation were evaluated by Trypan blue exclusion assays and MTS assay, respectively. […] For quantization of cell viability, blue and bright cells were counted, and viability was calculated as the number of living (bright) and dead (blue) cells in each well.
The absorbance of formazan at 490 nm was measured in a colorimetric assay with an automated plate reader (Victor Wallac 2, Perkin Elmer). For wash-out experiments, U87MG cells were treated with EB148 or EB54 (100 nM-10 μM) for 72 h. Following incubation, medium-containing drugs was replaced by fresh medium, and cells were allowed to growth for the indicated days. At the end of treatments, cell proliferation was measured by MTS assay. The results were calculated by subtracting the mean background from the values obtained from each evaluation and were expressed as the percentage of the control (untreated cells). Sigmoid dose-response curve was generated, from which the IC50 values were derived.

Series [7] deals with mitochondria isolated from U87MG cells. The series can be described thus: Mitochondrial membrane potential (Δψm) dissipation, JC-1 protocol. Format: biochemical, human. As to conditions: 1 μM, 20 min, isolated mitochondria. The protocol:
The Δψm dissipation was assessed using the fluorescent dye 5,59,6,69-tetrachloro1,19,3,39-tetraethylbenzimidazolylcarbocyanine iodide (JC-1). Mitochondria were isolated from U87MG cells using the Mitochondria Isolation Kit (Sigma Aldrich, Milan, Italy) following manufacturer's instructions.
Isolated mitochondria were treated for 20 min with EB54 or EB148 (1 μM). In wash-out experiments, mitochondria were then centrifuged at 11.000 × g for 5 min, washed with fresh saline and suspended in JC-1 buffer not containing the drugs. At the end of treatments, 5 μg of control and treated mitochondria were added to the JC-1 dye. The fluorescence (relative fluorescence units, RFU) of the sample was read in a spectrofluorimeter using a time-drive method (one acquisition each 10 sec, for 10 min), where the excitation wavelength was set to 490 nm and emission wavelength at 590 nm. […] Consequently, mitochondrial depolarization is indicated by a decrease in the orange-red fluorescence intensity.

For series [8], the system named is p53 target genes (p53, p21 and MDM2). Kind of series: Relative mRNA quantification of p53 target genes by real-time RT-PCR. Format: cell-based, human. Here is the method: In brief, total RNA was extracted from control cells as well as from cells treated with EB148 or EB54 (1 μM) for different times (8 h, 16 h or 24 h), using RneasyH Mini Kit (Qiagen, Hilden, Germany), according to manufacturer's instructions. cDNA synthesis was performed with 500 ng of RNA using i-Script cDNA synthesis kit (BioRad, Hercules, USA). RT-PCR reactions consisted of 25 μl FluocycleH II SYBRH (Euroclone, Milano, Italy), 1.5 μl of both 10 μM forward and reverse primers (listed in [56]), 3 μl cDNA, and 19 μL of H2O. […] PCR specificity was verified by both the melting curve analysis and gel electrophoresis.

T1 sequence (P30536 whole entry): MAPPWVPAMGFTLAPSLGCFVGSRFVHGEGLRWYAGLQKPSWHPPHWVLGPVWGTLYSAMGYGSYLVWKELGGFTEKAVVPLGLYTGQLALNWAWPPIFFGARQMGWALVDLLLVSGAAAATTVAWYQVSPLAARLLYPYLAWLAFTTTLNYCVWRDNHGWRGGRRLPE

Turning to `CCOC(=O)[C@@H](Cc1ccccc1)NC(=O)[C@H](CC(C)C)NC(=O)C(=O)c1c(-c2ccccc2)[nH]c2ccccc12` [EB54], the “p53 protein levels after wash-out” value in the series with p53 protein (1 μM for 16 h, then wash-out of 16 h) was “control levels”. Moreover, the p53 protein levels entry in the series with p53 protein (1 μM, 16 h) is “slight but significant increase”. At human TSPO [1], the off-rate constant (koff) – broadly, a measure of how fast the partners let go of each other – is 0.000482 s⁻¹ and the kon (in general, the rate constant with which the complex forms) is 3600 M⁻¹ s⁻¹. Also, the Kd (usually the equilibrium constant for the complex coming apart) on human TSPO [1] (calculated as ratio of estimated koff and kon) was 0.134 µM. For the same compound, the ERK1/2 phosphorylation entry with ERK1/2 (1 μM, up to 8 h) was “did not induce any significant ERK1/2 stimulation”. In addition, the “effect of blocking p53 on compound-mediated ERK1/2 activation” value with ERK1/2 (pifithrin-β 1 μM 30 min, then compound 1 μM 2 h) is on record as “did not significantly affect”. The “total number of living cells” value with U87MG cells [2] is “reduced the total number of living cells”. The Ki (as a rule, a measure of affinity in units of concentration, obtained from inhibition or displacement) at human TSPO [3] was 0.108 ± 0.01 µM. In addition, the MSC viability/proliferation result in [4] is “significantly decreased”. The “phosphatidylserine externalization (early and late apoptosis)” value in the series with U87MG cells [5] is listed as “significant phoshpatidilserine externalization”. For the same compound, the “cell proliferation 72 h after cell wash-out” value in the series on U87MG cells [6] is “significant recovery in proliferative activity”. In addition, in series [7], the “JC-1 accumulation (Δψm) compared to control untreated mitochondria” value is on record as “significant reduction”. Besides, the “mRNA expression level of p21, p53 and MDM2” value in series [8] (1 μM, 8 and 16 h) is given as “significant increase”. Besides, the “mRNA expression of p21, p53 and MDM2” value in series [8] (1 μM, after 24 h) is on record as “significantly lower than controls”. Also, in [8] (treated for 2 h (text; legend: 16 h), washed out for 16 h in drug-free medium), the “levels of p53 target gene transcripts after wash-out” value is “down-regulated”.

(Values after paper PMC4884960, “Long lasting MDM2/Translocator protein modulator: a new strategy for irreversible apoptosis of human glioblastoma cells” (Oncotarget, 2016).)
